Experimental data from patent EP0167459B1, “2-Amino oxazolines and process for their preparation” (priority 1984, dated 1986).
Each block holds one compound with its values, some of them ahead of it.

Key:
5-HT = 5-HT (Homo sapiens, UniProt P31645); assay: Inhibition of neurotransmitter uptake in vitro, 5-HT; format: cell-based; conditions: for IC50: 5-HT = (so in the source), read-out: UPTAKE NEUROTRANSMETTEUR IN VITRO IC 50 M 5-HT
NAd = NAd (Homo sapiens, UniProt P23975); assay: Inhibition of neurotransmitter uptake in vitro, noradrenaline; format: cell-based; conditions: NAd = Noradrénaline; for IC50: read-out: UPTAKE NEUROTRANSMETTEUR IN VITRO IC 50 M NAd
DA = DA (Homo sapiens, UniProt Q01959); assay: Inhibition of neurotransmitter uptake in vitro, dopamine; format: cell-based; conditions: for IC50: read-out: UPTAKE NEUROTRANSMETTEUR IN VITRO IC 50 M DA; for UPTAKE NEUROTRANSMETTEUR IN VITRO IC 50 M DA: DA = Dopamine
[1] = Cardiovascular activity in the anaesthetised dog; format: in vivo, chien
Excerpt: Les 2-amino-oxazolines selon l'invention se caractérisent par des propriétés pharmacologiques intéressantes, et notamment par des propriétés anti-dépressives, hypertensives et analeptiques vasculaires. Elles agissent sur les récepteurs α₂, soit par un phénomène de bloquage, soit par un effet agoniste. […] Cet effet s'apparente donc à celui de la Yohimbine.
Chez le chien anesthésié, l'injection des produits selon l'invention provoque une hypertension durable, à des doses relativement faibles, allant de 0,05 à 1 mg/kg I.V.

[2] = in vivo
[3] = Motor activity (exploration) in the mouse; format: in vivo, souris
RECEPTEURS α2 = assay: Affinity for the α2 receptor in vitro; format: binding; conditions: read-out: AFFINITE RECEPTEURS α2 IN VITRO IC […]; read-out: […] […] α2 IN VITRO IC 50 M
récepteurs α₂ = conditions: lizard; Carter and Shuster, Br. J. Pharmacol. (1982), 75, 169-176; cited from earlier work
[4] = mouse, doses 0,75 à 20 mg/kg

5-HT, sequence (P31645 whole entry): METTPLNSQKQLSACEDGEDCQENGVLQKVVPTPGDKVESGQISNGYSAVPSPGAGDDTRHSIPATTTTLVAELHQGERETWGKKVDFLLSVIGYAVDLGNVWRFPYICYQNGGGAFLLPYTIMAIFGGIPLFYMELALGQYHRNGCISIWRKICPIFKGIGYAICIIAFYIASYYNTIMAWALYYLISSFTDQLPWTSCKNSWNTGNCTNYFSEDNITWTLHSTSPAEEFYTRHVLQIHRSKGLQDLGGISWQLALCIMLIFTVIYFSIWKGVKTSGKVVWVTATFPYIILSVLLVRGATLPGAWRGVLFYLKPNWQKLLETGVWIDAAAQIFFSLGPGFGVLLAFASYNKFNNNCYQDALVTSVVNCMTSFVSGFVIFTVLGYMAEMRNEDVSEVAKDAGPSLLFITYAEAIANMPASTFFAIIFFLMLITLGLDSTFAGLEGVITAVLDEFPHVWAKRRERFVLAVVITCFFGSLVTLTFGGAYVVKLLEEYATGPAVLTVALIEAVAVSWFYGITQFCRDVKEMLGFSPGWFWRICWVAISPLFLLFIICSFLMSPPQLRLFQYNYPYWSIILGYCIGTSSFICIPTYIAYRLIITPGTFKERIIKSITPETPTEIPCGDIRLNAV
NAd, sequence (P23975 whole entry): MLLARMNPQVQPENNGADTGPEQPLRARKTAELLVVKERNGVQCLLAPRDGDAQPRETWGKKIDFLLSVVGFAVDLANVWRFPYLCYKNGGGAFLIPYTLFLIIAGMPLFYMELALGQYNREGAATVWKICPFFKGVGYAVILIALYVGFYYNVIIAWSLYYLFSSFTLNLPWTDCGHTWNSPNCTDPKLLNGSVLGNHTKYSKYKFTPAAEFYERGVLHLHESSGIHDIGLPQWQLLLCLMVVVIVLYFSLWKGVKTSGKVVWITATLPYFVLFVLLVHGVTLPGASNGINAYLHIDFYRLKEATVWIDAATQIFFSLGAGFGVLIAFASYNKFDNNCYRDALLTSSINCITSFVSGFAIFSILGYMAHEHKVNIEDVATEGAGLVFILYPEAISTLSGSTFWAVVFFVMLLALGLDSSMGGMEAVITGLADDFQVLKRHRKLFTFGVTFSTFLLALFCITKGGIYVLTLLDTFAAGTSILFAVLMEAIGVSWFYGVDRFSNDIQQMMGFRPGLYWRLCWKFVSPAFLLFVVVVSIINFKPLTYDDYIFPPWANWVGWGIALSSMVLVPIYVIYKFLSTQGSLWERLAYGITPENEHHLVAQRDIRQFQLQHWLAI
DA, sequence (Q01959 whole entry): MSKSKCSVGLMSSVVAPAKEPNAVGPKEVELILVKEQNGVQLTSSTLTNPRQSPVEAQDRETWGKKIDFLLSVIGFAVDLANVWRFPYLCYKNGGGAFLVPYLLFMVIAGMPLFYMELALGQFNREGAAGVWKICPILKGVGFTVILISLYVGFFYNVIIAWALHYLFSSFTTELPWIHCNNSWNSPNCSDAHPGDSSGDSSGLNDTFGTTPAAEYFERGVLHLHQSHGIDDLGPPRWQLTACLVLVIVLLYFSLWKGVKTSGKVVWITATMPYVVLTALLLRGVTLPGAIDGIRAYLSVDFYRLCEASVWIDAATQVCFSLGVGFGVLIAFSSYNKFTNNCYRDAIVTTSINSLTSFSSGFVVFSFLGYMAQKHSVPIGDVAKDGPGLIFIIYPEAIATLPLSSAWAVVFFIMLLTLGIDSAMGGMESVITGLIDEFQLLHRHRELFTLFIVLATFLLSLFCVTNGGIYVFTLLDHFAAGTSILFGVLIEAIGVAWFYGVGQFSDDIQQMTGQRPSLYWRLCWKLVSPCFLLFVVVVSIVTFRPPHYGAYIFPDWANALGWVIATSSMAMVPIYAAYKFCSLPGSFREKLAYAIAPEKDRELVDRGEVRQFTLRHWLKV

Compound: NC1=NC(COc2ccccc2)CO1 (racemic) [ex. 6, 4-phénoxy-méthyl 2-amino-oxazoline]
- IC50 (5-HT): > 10000 nM
- UPTAKE NEUROTRANSMETTEUR IN VITRO IC 50 M NAd (NAd): nul à 10^-5
- IC50 (DA): > 10000 nM

Compound: Clc1cccc(Cl)c1N=C1NCCN1 [CLONIDINE]
- activité vasomotrice (vasodilatation ou vasoconstriction primaire) [1]: activité vasoconstrictive d'emblée
- activité diabétogène [2]: activité diabétogène expérimentale
- exploration [3]: diminuent l'exploration
- IC50 (RECEPTEURS α2): 1 nM
- noircissement qui résulte du traitement par le MSH (récepteurs α₂): antagonisé
- température centrale [4]: baisse de température

Compound: NC1=NC(Cc2ccccc2)CO1 (single isomer, unassigned) [ex. 12]
- IC50 (5-HT): > 10000 nM
- IC50 (RECEPTEURS α2): 4 nM
- IC50 (NAd): 400 nM
- IC50 (DA): 4000 nM

- IC50 (RECEPTEURS α2): 22 nM
Compound: Cc1ccc(N(CC2=NCCN2)c2cccc(O)c2)cc1 [PHENTOLAMINE, reference compound]

Compound: NC1=NC(Cc2ccccc2Cl)CO1 (racemic) [ex. 11]
- IC50 (5-HT): > 10000 nM
- IC50 (RECEPTEURS α2): 2.7 nM
- IC50 (NAd): 2500 nM
- IC50 (DA): > 10000 nM

Compound: NC1=NC(COc2ccccc2Cl)CO1 (centres unmarked) [ex. 5, 4-(2-chlorophénoxyméthyl) 2-amino-oxazoline]
- IC50 (5-HT): 2800 nM
- IC50 (RECEPTEURS α2): 33 nM
- IC50 (NAd): > 10000 nM
- IC50 (DA): 7200 nM

Compound: COc1ccc(OCC2COC(N)=N2)cc1 (centres unmarked) [ex. 7, 4-(4-méthoxyphenoxymethyl) 2-amino-oxazoline]
- IC50 (5-HT): > 10000 nM
- IC50 (RECEPTEURS α2): > 100 nM
- UPTAKE NEUROTRANSMETTEUR IN VITRO IC 50 M NAd (NAd): nul à 10^-5
- UPTAKE NEUROTRANSMETTEUR IN VITRO IC 50 M DA (DA): nul à 10^-5

Compound: NC1=NC(Cc2ccc(O)cc2)CO1 (racemic) [ex. 20]
- IC50 (RECEPTEURS α2): > 100 nM

Compound: NC1=NC(COCc2ccccc2)CO1 (centres unmarked) [ex. 8, 4-(benzyloxy-méthyl) 2-amino-oxazoline]
- IC50 (5-HT): > 10000 nM
- IC50 (RECEPTEURS α2): > 100 nM
- UPTAKE NEUROTRANSMETTEUR IN VITRO IC 50 M NAd (NAd): nul à 10^-5
- UPTAKE NEUROTRANSMETTEUR IN VITRO IC 50 M DA (DA): nul à 10^-5

Compound: NC1=NC(Cc2ccc(Cl)cc2)CO1 (racemic) [ex. 10]
- IC50 (5-HT): 4000 nM
- IC50 (RECEPTEURS α2): 44 nM
- IC50 (NAd): 4000 nM
- IC50 (DA): 2300 nM

Compound: NC1=NC(Cc2ccccc2Cl)CO1 (single isomer, unassigned) [ex. 23]
- IC50 (RECEPTEURS α2): 3.3 nM

- IC50 (RECEPTEURS α2): 29 nM
Compound: c1ccc2c(c1)OCC(C1=NCCN1)O2 (centres unmarked) [IDAZOXAN, reference compound]

Compound: NC1=NC(CCc2ccccc2)CO1 (racemic) [ex. 13]
- UPTAKE NEUROTRANSMETTEUR IN VITRO IC 50 M 5-HT (5-HT; 5-HT = 5-hydroxytryptophane (so in the source)): nul à 10^-6
- IC50 (RECEPTEURS α2): > 100 nM
- IC50 (NAd): 230 nM
- UPTAKE NEUROTRANSMETTEUR IN VITRO IC 50 M DA (DA): nul à 10^-6
